The test system of one series is cprS. The series can be described thus: qRT-PCR, cprS transcription. The conditions noted are these: oprL as normalizer. The class given is cell-based, P. aeruginosa. The procedure: (§1) Overnight bacterial cultures were subcultured in fresh LB medium to OD600 0.8 and the cells were collected by using Trizol. The cDNA was synthesized by using PrimeScript RT reagent Kit. 2 × SYBR qPCR Master Mix was used to perform qPCR assays. The reaction step was 2 × SYBR qPCR Master Mix (Without ROX) 10 μL, upstream Primer (10 μM) 0.4 μL, downstream Primer (10 μM) 0.4 μL, template cDNA 1 μg and ddH2O up to 20 μL. The qPCR procedure was set as: stage 1 (95°C 30 s, repeat once), stage 2 (95°C 10 s, 60°C 30 s, repeat for 40 times) and stage 3 (95°C 15 s, 60°C 1 min, 95°C 15 s, repeat 1 time). The oprL gene was used as a normalizer. The same method was used for mammalian cells, and 18 sRNA served as a normalizer.
For orientation: Real-time PCR tracks product formation cycle by cycle.

The subject of a further series is higA. The experiment in a line: Expression of higA. The conditions noted are these: WT and ΔcprR or ΔcprS mutants. The format is cell-based, P. aeruginosa. The procedure:
as §1

Series [1] deals with CprS sensor domain (CprSSD, residues 28–163). The experiment in a line: Microscale thermophoresis (MST), CprS sensor domain. The format is binding, P. aeruginosa. The conditions noted are these: 100 nM His-tag labelled CprSSD (residues 28–163), 16 doubling dilutions from 500 μM peptide, PBST buffer, 25°C 30 min, Monolith NT.115, repeated three times, read-out: Kd (CprSSD + LL-37). The procedure:
(§2) The E. coli BL21 (DE3) strains harboring pET22b-cprS and pET22b-cprR were cultured at 37°C in LB medium and suppled with 0.4 mM IPTG as the OD600 reached to 0.8. The cultures were incubated at 16°C for an additional 14 h and the cells were collected and resuspended in buffer A (20 mM tris-HCl (pH 8.0), 150 mM NaCl). The cells were lysed by ultrasound and centrifuged at 15, 000 rpm for 20 min at 4°C. Then the supernatant was applied to Ni-agarose resins and eluted with buffer containing 300 mM imidazole. As for full-length CprS, the supernatant needed to be extracted by 2% ELUGENT Detergent and flow 0.02% DDM for elution. The target proteins were further purified via AKTA purifier using buffer A and concentrated to 12 mg/mL.
(§3) The 100 nM CprS with His-tag was labeled with Monolith His-Tag Labelling Kit RED-tris-NTA 2nd Generation Kit and the cationic peptides used in this work were diluted with PBST buffer gradient from 0.5 mM [34]. The proteins and cationic peptide dilutions were mixed and incubated at 25°C for 30 min and detected on a Monolith NT.115 instrument. The data were analyzed by NanoTemper Analysis 1.2.20 software.
A general note: MST reads how a fluorescent partner responds to local heating, with and without ligand.

The next series has as its system CarSR system. To be noted: Vibrio cholerae; cited from earlier work. From the text:
(§4) In the field of microbiology and immunology, the interaction between host antimicrobial peptides and pathogenic bacteria has been a subject of extensive research. The success of bacterial infections depends on a delicate balance of signals exchanged between microbes and hosts. Cationic antimicrobial peptides, including defensins such as α-defensins, β-defensins, and cathelicidin LL-37, are crucial components of innate host defense against bacterial infections. Numerous studies have shown that LL-37 acts as a shield between the host and the external environment, preventing bact ...

Series [2] has as its system virulence sensor kinase CovS. To be noted: group A streptococcus; cited from earlier work.
From the text: as §4

A further series has as its system P. aeruginosa ΔcprS. The series can be described thus: Label-free quantitative proteomics of ΔcprS before and after LL-37. The format is cell-based. To be noted: PscE, PscH, PscJ, ExoT, PcrV, PcrH, PhzA2, PhzB2, PhzF1, FilF, PigA, HsbA; before vs after LL-37. The method, then:
Protein was collected, reduced, and alkylated from WT, ΔcprS, ΔcprR, ΔcprSΔhigB, and ΔcprSΔhigB strains as reported. The total purified peptides were solubilized in 20 μL of 0.1% formic acid (FA, v/v) and the concentration was measured according to BCA assay.
About 2 μg samples were analyzed by orbitrap Fusion Lumos MS coupled online to an EASY-nLC 1200 system with a data-independent acquisition mode (DIA). The mobile phase used for the liquid chromatography consisted of buffer A (0.1% FA) and buffer B (80% acetonitrile, 0.1% FA). The peptides were separated using a 160-min nonlinear gradient consisting of 4–35% buffer B for 85 min, 35–100% buffer B for 60 min and 100% buffer B for 15 min at a flow rate of 300 nL min^−1. The acquired DIA data were analyzed by DIA-NN software against the protein database of P. aeruginosa PA14. Data processing was conducted using the software Perseus. Student’s t-test was used to assess the significance of differential expression of proteins (DEPs) between two groups. Proteins that have significance level of P < 0.05 and fold change >1.5 or <–1.5 were considered as DEPs.

The next series concerns cprR. The series can be described thus: qRT-PCR, cprR transcription. To be noted: oprL as normalizer. The class given is cell-based, P. aeruginosa. The method, then: as §1
The subject of another series is higB. The series can be described thus: qPCR, higB mRNA. The format is cell-based, P. aeruginosa. The method, then: as §1
Series [3] has as its system exsA and effectors exoS, exoT, and exoU. The experiment in a line: Expression of T3SS genes exsA, exoS, exoT, exoU. The class given is cell-based, P. aeruginosa. To be noted: combined mutations of CprRS components and higB gene. The method, then: as §1
Another series deals with higB promoter. The experiment in a line: β-Galactosidase reporter, higB promoter in P. aeruginosa. The format is cell-based.
Series [4] addresses full-length CprS (CprSFL). The series can be described thus: Microscale thermophoresis (MST), full-length CprS. To be noted: 100 nM His-tag labelled CprSFL, 16 doubling dilutions from 500 μM peptide, PBST buffer, 25°C 30 min, Monolith NT.115, repeated three times, read-out: Kd (CprSFL + LL-37). The class given is binding, P. aeruginosa. The procedure:
as §2, §3

Another series concerns Raw264.7 macrophages. The experiment in a line: LDH release cytotoxicity assay of infected macrophages. The class given is cell-based. The conditions noted are these: MOI of 10, LL-37-treated WT P. aeruginosa. The method, then:
The Raw264.7 cells were infected with suspended bacteria at a multiplicity of infection (MOI) of 10 in antibiotic-free DMEM medium. Following incubation, the supernatant was collected and the presence of LDH was measured using the LDH cytotoxicity assay kit. The baseline level of LDH release (0% LDH release) was determined using DMEM medium. Cells treated with LDH release agent C0017-1 were used as a positive control for total release (100% LDH release). The percentage of cytotoxicity was calculated according to the instructions provided by the manufacturer.
Background: Release of lactate dehydrogenase indicates damage to the cell membrane.

The test system of series [5] is RAW264.7 macrophages (TNF-α, IL-1β, IL-8, IL-12). The experiment in a line: Pro-inflammatory cytokine levels in infected macrophages. The format is cell-based. The conditions noted are these: 18s RNA normalizer. The method, then: as §1
In a further series the test system is arnBCADTEF operon. The series can be described thus: Expression of arnBCADTEF operon. The format is cell-based, P. aeruginosa. The method, then: as §1
The subject of another series is pscDEFG operon. The series can be described thus: Expression of pscDEFG operon. The format is cell-based, P. aeruginosa. The procedure: as §1
Series [6] relates to CprRS as well as ParRS system. The conditions noted are these: cited from earlier work. The text has this:
Pseudomonas aeruginosa is a notorious opportunistic pathogen known for its ability to evade host immune defenses, particularly in resisting antimicrobial peptides (AMPs). […] One notable feature is the abundance and diversity of two-component systems (TCS) in P. aeruginosa, which play a crucial role in regulating its response to host and environmental stimuli, including ...

Consider LL-37, for which, in the series on cprS, the “increase in cprS transcription compared to control without LL-37” value turned out to be 2.5 fold. Further, the “effect of LL-37 stimulation on expression of higA” value with higA was “limited effects on the expression of higA”. Moreover, the Kd – broadly, the equilibrium constant for the complex coming apart – stood at 5.34 µM in series [1] and 1.41 µM in series [4]. In addition, the “sensing by CarSR” value in the series on CarSR system was “sense human enteric α-defensin 5 and LL-37 to promote bacterial pathogenicity”. Moreover, the “activation of CovS” value in series [2] was “activated by LL-37”. The “expression of virulence proteins in ΔcprS upon stimulation with LL-37” value with P. aeruginosa ΔcprS was “significant decrease in the expression of several proteins directly involved in virulence processes”. The “increase in cprR transcription compared to control without LL-37” value in the series on cprR turned out to be 2.2 fold. Also, the “increase in higB mRNA levels upon LL-37 treatment” value turned out to be 8.79 fold in the series on higB (WT strain), 2.12 fold in the series on higB (ΔcprR mutant) and 2.74 fold with higB (ΔcprS mutant). Moreover, the “upregulation of T3SS in response to LL-37 stimulation” value in series [3] was “greatly attenuated”. The “induction of higB promoter by LL-37” value is recorded as “significant positive induction activity on higB promoter” with higB promoter (WT); “markedly reduced” with higB promoter (ΔcprR and ΔcprS mutants). Also, the “cytotoxicity of LL-37-treated WT strains compared to untreated group” value with Raw264.7 macrophages is on record as “increased cytotoxicity”. Also, the “effect of LL-37 pretreatment on inhibition of pro-inflammatory cytokines” value is recorded as “enhanced the ability of the WT strain to effectively inhibit the activation of pro-inflammatory cytokines” in series [5] (macrophages infected with WT strain pretreated with LL-37); “largely absent” in [5] (macrophages infected with ΔcprS and ΔcprR strains). For the same substance, the “expression of arnBCADTEF operon under LL-37” value is listed as “markedly induced” with arnBCADTEF operon (WT strain); “this induction was not observed” in the series on arnBCADTEF operon (ΔcprR and ΔcprS mutants). Besides, the “expression of pscDEFG operon under LL-37” value with pscDEFG operon (WT strain) is reported as “notably induced”; in the series on pscDEFG operon (mutants), “no such induction was observed”.

Turning to dynorphin, the “stimulation of CprRS as well as ParRS by dynorphin” value in series [6] was “increased virulence factor production and adaptive resistance”.

(Values after article PMC10805311, “Pseudomonas aeruginosa two-component system CprRS regulates HigBA expression and bacterial cytotoxicity in response to LL-37 stress” (PLOS Pathogens, 2024).)
